Source: the supplement of paper PMC4862054

Key:
Conditions in all cases: incubation time: 72 h
CAL-51 [1] = test: normalised response (% of control), CellTox Green; higher = less cell death (100 = DMSO, 0 = benzethonium chloride kill control)
Outline: (§1)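 Each value is the plate-normalised signal at one concentration of the series. Breast cancer cell lines (20 µl suspension) were incubated 72 h in 384-well plates with compound at 5 concentrations in 10-fold steps over a compound-specific 10,000-fold range. CellTox Green and then CellTiter-Glo were read, and each plate was scaled to 0.1 % DMSO (100) and a positive kill control (0).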

BT-549 [2] = test: as above
Outline: as §1

HDQ-P1 [3] = test: as above
Outline: as §1

MCF-10A [4] = test: as above
Outline: as §1

MFM-223 [5] = test: as above
Outline: as §1

CAL-85-1 [6] = test: as above
Outline: as §1

BT-474 [7] = test: as above
Outline: as §1

HCC1599 [8] = test: as above
Outline: as §1

MDA-MB-436 [9] = test: as above
Outline: as §1

Hs578T [10] = test: as above
Outline: as §1

CAL-120 [11] = test: as above
Outline: as §1

MDA-MB-453 [12] = test: as above
Outline: as §1

HCC1937 = test: as above
Outline: as §1

HCC1143 [13] = test: as above
Outline: as §1

MDA-MB-231 [14] = test: as above
Outline: as §1

CAL-51 [15] = test: normalised response (% of control), CellTiter-Glo; higher = more viable cells (100 = DMSO, 0 = benzethonium chloride kill control)
Outline: as §1

BT-549 [16] = test: as above
Outline: as §1

HDQ-P1 [17] = test: as above
Outline: as §1

MCF-10A [18] = test: as above
Outline: as §1

MFM-223 [19] = test: as above
Outline: as §1

CAL-85-1 [20] = test: as above
Outline: as §1

MDA-MB-468 = test: as above
Outline: as §1

BT-474 [21] = test: as above
Outline: as §1

HCC1599 [22] = test: as above
Outline: as §1

MDA-MB-436 [23] = test: as above
Outline: as §1

CAL-148 = test: as above
Outline: as §1

Hs578T [24] = test: as above
Outline: as §1

CAL-120 [25] = test: as above
Outline: as §1

MDA-MB-453 [26] = test: as above
Outline: as §1

MDA-MB-231 [27] = test: as above
Outline: as §1

HCC1143 [28] = test: as above
Outline: as §1

SK-BR-3 = test: as above
Outline: as §1

Molecule `O=NN(CCCl)C(=O)NC1CCCCC1` [Lomustine] (10000 nM) has a normalised response (CAL-51 [1]) of 108%, a normalised response (BT-549 [2]) of 93.2% and a normalised response (HDQ-P1 [3]) of 98.9%. For the same molecule, the normalised response (MCF-10A [4]) was 88.2%, the normalised response (MFM-223 [5]) was 103% and the normalised response (CAL-85-1 [6]) was 108%. It also gave a normalised response (BT-474 [7]) of 95.2%, a normalised response (HCC1599 [8]) of 103% and a normalised response (MDA-MB-436 [9]) of 86.5%. The normalised response (Hs578T [10]) was 113%, the normalised response (CAL-120 [11]) was 92.5% and the normalised response (MDA-MB-453 [12]) was 100%. The normalised response (HCC1937) was 57.4% and the normalised response (HCC1143 [13]) was 108%.
Molecule `O=C(O)CC[C@H]1CC[C@@](c2cc(F)ccc2F)(S(=O)(=O)c2ccc(Cl)cc2)CC1` [MK-0752] (1000 nM) has a normalised response (CAL-51 [1]) of 118%, a normalised response (BT-549 [2]) of 107% and a normalised response (HDQ-P1 [3]) of 110%. For the same molecule, the normalised response (MCF-10A [4]) was 114%, the normalised response (MFM-223 [5]) was 57.7% and the normalised response (CAL-85-1 [6]) was 70.6%. For the same molecule, the normalised response (BT-474 [7]) was 104%, the normalised response (HCC1599 [8]) was 109% and the normalised response (MDA-MB-436 [9]) was 96.9%. For the same molecule, the normalised response (Hs578T [10]) was 91.9%, the normalised response (CAL-120 [11]) was 102% and the normalised response (HCC1937) was 104%. It also gave a normalised response (MDA-MB-231 [14]) of 111% and a normalised response (HCC1143 [13]) of 88.8%.
`NC(=O)c1cccc2cn(-c3ccc([C@@H]4CCCNC4)cc3)nc12` [MK-4827] (10000 nM) showed a normalised response (CAL-51 [1]) of 63.6%, a normalised response (BT-549 [2]) of 103% and a normalised response (HDQ-P1 [3]) of 97.9%. The normalised response (MCF-10A [4]) was 94.8%, the normalised response (MFM-223 [5]) was 98.7% and the normalised response (CAL-85-1 [6]) was 70.3%. The normalised response (BT-474 [7]) was 97.5%, the normalised response (HCC1599 [8]) was 97.4% and the normalised response (MDA-MB-436 [9]) was 105%. For the same molecule, the normalised response (Hs578T [10]) was 118%, the normalised response (CAL-120 [11]) was 97.3% and the normalised response (MDA-MB-453 [12]) was 105%. The normalised response (MDA-MB-231 [14]) was 139% and the normalised response (HCC1143 [13]) was 127%.
Work on `C[C@]12C=CC(=O)C=C1CC[C@@H]1[C@@H]2C(=O)C[C@@]2(C)[C@H]1CC[C@]2(O)C(=O)CO` [Prednisone] (10000 nM) yielded a normalised response (CAL-51 [1]) of 109%, a normalised response (BT-549 [2]) of 99.6% and a normalised response (HDQ-P1 [3]) of 114%. It also gave a normalised response (MCF-10A [4]) of 104%, a normalised response (MFM-223 [5]) of 100% and a normalised response (CAL-85-1 [6]) of 91.9%. The normalised response (BT-474 [7]) was 101%, the normalised response (HCC1599 [8]) was 102% and the normalised response (MDA-MB-436 [9]) was 107%. For the same molecule, the normalised response (CAL-120 [11]) was -48.9%, the normalised response (MDA-MB-453 [12]) was 100% and the normalised response (HCC1937) was 98.8%. For the same molecule, the normalised response (MDA-MB-231 [14]) was 114% and the normalised response (HCC1143 [13]) was 118%.
In the case of `CC/C(=C(\c1ccccc1)c1ccc(OCCN(C)C)cc1)c1ccccc1` [Tamoxifen] (1000 nM), the normalised response (CAL-51 [15]) was 81.8%, the normalised response (BT-549 [16]) was 96.1% and the normalised response (HDQ-P1 [17]) was 106%. For the same molecule, the normalised response (MCF-10A [18]) was 104%, the normalised response (MFM-223 [19]) was 97.9% and the normalised response (CAL-85-1 [20]) was 99.8%. The normalised response (MDA-MB-468) was 93.8%, the normalised response (BT-474 [21]) was 95.9% and the normalised response (HCC1599 [22]) was 107%. It also gave a normalised response (MDA-MB-436 [23]) of 97.7%, a normalised response (CAL-148) of 103% and a normalised response (Hs578T [24]) of 106%. For the same molecule, the normalised response (CAL-120 [25]) was 94.8%, the normalised response (MDA-MB-453 [26]) was 93.1% and the normalised response (MDA-MB-231 [27]) was 103%. It also gave a normalised response (HCC1143 [28]) of 104%, a normalised response (SK-BR-3) of 103% and a normalised response (CAL-51 [1]) of 99.5%. For the same molecule, the normalised response (BT-549 [2]) was 94%, the normalised response (MCF-10A [4]) was 111% and the normalised response (MFM-223 [5]) was 74.9%. It also gave a normalised response (CAL-85-1 [6]) of 101%, a normalised response (BT-474 [7]) of 101% and a normalised response (HCC1599 [8]) of 103%. For the same molecule, the normalised response (MDA-MB-436 [9]) was 108%, the normalised response (Hs578T [10]) was 89.4% and the normalised response (CAL-120 [11]) was 102%. It also gave a normalised response (MDA-MB-453 [12]) of 110%, a normalised response (MDA-MB-231 [14]) of 103% and a normalised response (HCC1143 [13]) of 122%.
Molecule `CC/C(=C(\c1ccccc1)c1ccc(OCCN(C)C)cc1)c1ccccc1` [Tamoxifen] (10000 nM) has a normalised response (CAL-51 [1]) of 105%, a normalised response (BT-549 [2]) of 86.1% and a normalised response (HDQ-P1 [3]) of 105%. It also gave a normalised response (MCF-10A [4]) of 81.5%, a normalised response (MFM-223 [5]) of 88% and a normalised response (BT-474 [7]) of 9.58%. The normalised response (HCC1599 [8]) was 80.4%, the normalised response (Hs578T [10]) was 74.1% and the normalised response (CAL-120 [11]) was 83.5%. The normalised response (MDA-MB-453 [12]) was 35.6%, the normalised response (HCC1937) was 3.06% and the normalised response (MDA-MB-231 [14]) was 13.6%. For the same molecule, the normalised response (HCC1143 [13]) was 108%.
Molecule `C[C@@H](C(=O)O)c1ccc(-c2ccccc2)c(F)c1` [Tarenflurbil] (1000 nM) has a normalised response (CAL-51 [15]) of 119%, a normalised response (BT-549 [16]) of 99.3% and a normalised response (HDQ-P1 [17]) of 94.7%. The normalised response (MCF-10A [18]) was 90.1%, the normalised response (MFM-223 [19]) was 95% and the normalised response (CAL-85-1 [20]) was 98.8%. It also gave a normalised response (MDA-MB-468) of 94.8%, a normalised response (BT-474 [21]) of 92% and a normalised response (HCC1599 [22]) of 106%. The normalised response (MDA-MB-436 [23]) was 100%, the normalised response (CAL-148) was 91.7% and the normalised response (Hs578T [24]) was 101%. The normalised response (CAL-120 [25]) was 96.5%, the normalised response (MDA-MB-453 [26]) was 96% and the normalised response (MDA-MB-231 [27]) was 95%. It also gave a normalised response (HCC1143 [28]) of 92.5%, a normalised response (SK-BR-3) of 87.8% and a normalised response (CAL-51 [1]) of 114%. For the same molecule, the normalised response (BT-549 [2]) was 108%, the normalised response (HDQ-P1 [3]) was 65.7% and the normalised response (MCF-10A [4]) was 91.4%. For the same molecule, the normalised response (MFM-223 [5]) was 87.5%, the normalised response (CAL-85-1 [6]) was 87.9% and the normalised response (BT-474 [7]) was 97.1%. For the same molecule, the normalised response (HCC1599 [8]) was 96.3%, the normalised response (MDA-MB-436 [9]) was 60.6% and the normalised response (CAL-120 [11]) was 100%. The normalised response (MDA-MB-453 [12]) was 102%, the normalised response (HCC1937) was 115% and the normalised response (HCC1143 [13]) was 105%.
Molecule `CC[C@@H]1C(=O)N(C)c2cnc(Nc3ccc(C(=O)N[C@H]4CC[C@H](N5CCN(CC6CC6)CC5)CC4)cc3OC)nc2N1C(C)C` [Volasertib] (100 nM) has a normalised response (CAL-51 [15]) of 23.7%, a normalised response (BT-549 [16]) of 25.9% and a normalised response (HDQ-P1 [17]) of 76.6%. The normalised response (MCF-10A [18]) was 58.5%, the normalised response (MFM-223 [19]) was 42% and the normalised response (CAL-85-1 [20]) was 53%. It also gave a normalised response (MDA-MB-468) of 36.5%, a normalised response (BT-474 [21]) of 63.6% and a normalised response (HCC1599 [22]) of 45.6%. For the same molecule, the normalised response (MDA-MB-436 [23]) was 50.1%, the normalised response (CAL-148) was 53% and the normalised response (Hs578T [24]) was 54.6%. It also gave a normalised response (CAL-120 [25]) of 64.4%, a normalised response (MDA-MB-453 [26]) of 77.3% and a normalised response (MDA-MB-231 [27]) of 48.5%. For the same molecule, the normalised response (HCC1143 [28]) was 50.5%, the normalised response (SK-BR-3) was 16.1% and the normalised response (CAL-51 [1]) was 46.4%. The normalised response (BT-549 [2]) was 79%, the normalised response (HDQ-P1 [3]) was -27.2% and the normalised response (MCF-10A [4]) was 24.1%. For the same molecule, the normalised response (MFM-223 [5]) was 53.5%, the normalised response (CAL-85-1 [6]) was 57% and the normalised response (BT-474 [7]) was 94.5%. It also gave a normalised response (HCC1599 [8]) of 72.2%, a normalised response (MDA-MB-436 [9]) of 64.2% and a normalised response (Hs578T [10]) of 61%. The normalised response (CAL-120 [11]) was 89%, the normalised response (MDA-MB-453 [12]) was 98% and the normalised response (MDA-MB-231 [14]) was -0.74%. It also gave a normalised response (HCC1143 [13]) of 81.8%.
